The values below come from patent US5843959A, “Methods and bicyclic polyamine compositions for the treatment of inflammation” (University of Florida Research Foundation, Inc., priority 1997, dated 1998).

Entries after “also recorded” stand apart in the source; their conditions may differ.

Assay [1] relates to BALB/c splenocytes stimulated with LPS. The assay can be described thus: Mitogen response to LPS (B cell proliferation). Format: cell-based, mouse (BALB/c). The procedure: This study examined the potential immunomodulatory activities of PIP[4,4,4] on mouse spleen cells using in vitro techniques. The effect of the compound on the ability of murine splenocytes to respond to the […] mitogen concanavalin A (Con A) and the B cell mitogen lipopolysaccharide (LPS) was studied. […] In addition, the compound was tested for its effect on the mixed lymphocyte response (MLR). The MLR is an in vitro manifestation of cell-mediated immunity in which T cells respond to differences in major histocompatibility complex (MHC) class II molecules (Ia antigens) expressed on foreign or allogeneic leukocytes (primarily B cells and […]/monocytes).
a. Preparation of cells--Under sterile conditions, spleens were removed from BALB/c (H-2^d) and CBA/J (H-2^k) mice. BALB/c splenocytes were used as responder cells in the mitogen assays and the MLR assays, whereas CBA/J cells were used as stimulator cells in the MLR assays. […] Cells were exposed to various concentrations of the test compounds for the entire culture period. The initial dilutions in medium were filter sterilized to maintain aseptic conditions.
b. Mitogen assays--Con A and LPS were obtained from Sigma Chemical Co. (St. Louis, Mo., U.S.A.). 2×10^5 BALB/c splenocytes were added per well. […] Triplicate wells were set up in 96-well flat-bottom microtiter plates for all treated cultures and positive controls (100% of control) were performed in replicates of nine wells. Plates were incubated at 37° C. in a humidified CO2 incubator for 3 days, pulsed with 1 μCi ^3 H-TdR/well for 6-16 hours, harvested and counted in a liquid scintillation counter. All data were processed using Lotus 1-2-3 and SigmaPlot software.

Assay [2] relates to phenylquinone (P.Q.) writhing. The assay can be described thus: Analgesic activity, phenylquinone writhing. Format: in vivo, mouse (ICR). The procedure: The method of Siegmund et al [Proc. Soc. Exp. Biol. Med., Vol. 95, pages 729-731 (1957)] was used to measure the analgesic activity of PIP[4,4,4]. Groups of 10 male ICR mice weighing 22±2 g were employed. Various doses of test compound, dissolved in a vehicle of distilled water, were administered intraperitoneally. The control group received vehicle alone. […] The mean±SEM number of writhes in each treatment group was calculated and unpaired Student's t test was applied for comparison between vehicle and treated groups. Differences were considered significant when P<0.05.

For `C(CCNCC1CCNCC1)CNCC1CCNCC1` [PIP[4,4,4], N,N'-Bis(4-piperidinylmethyl)-1,4-butanediamine], the “Proliferative response (CPM), Mean ± SD” value in assay [1] (LPS 25 μg/ml, drug 0.010 μm) was determined as 175516 ± 10793 CPM; in assay [1] (LPS 25 μg/ml, drug 0.100 μm), 174197 ± 23886 CPM; in assay [1] (LPS 25 μg/ml, drug 1.000 μm), 192921 ± 32628 CPM; in assay [1] (LPS 25 μg/ml, drug 10.000 μm), 187500 ± 8089 CPM; in assay [1] (LPS 25 μg/ml, drug 100.000 μm) it was 117804 ± 14014 CPM; in assay [1] (LPS 25 μg/ml, drug 1000.000 μm), 83427 ± 18281 CPM. The activity at 0.01 µM in assay [1] (Mus musculus, Splenocyte, 72 h, LPS 25 μg/ml, drug 0.010 μm, read-out: % Control) is 100%. Moreover, in assay [1] (Mus musculus, Splenocyte, 72 h, LPS 25 μg/ml, drug 0.100 μm, read-out: % Control), the activity at 0.1 µM came out at 99%. For the same compound, in assay [1] (Mus musculus, Splenocyte, 72 h, LPS 25 μg/ml, drug 1.000 μm, read-out: % Control), the activity at 1 µM worked out at 110%. The activity at 10 µM in assay [1] (Mus musculus, Splenocyte, 72 h, LPS 25 μg/ml, drug 10.000 μm, read-out: % Control) was determined as 106%. For the same compound, the activity at 100 µM in assay [1] (Mus musculus, Splenocyte, 72 h, LPS 25 μg/ml, drug 100.000 μm, read-out: % Control) worked out at 67%. For the same compound, the activity at 1000 µM in assay [1] (Mus musculus, Splenocyte, 72 h, LPS 25 μg/ml, drug 1000.000 μm, read-out: % Control) amounted to 47%. Moreover, in assay [1] (suppression in the 1-100 μm range), the “Effect on LPS response (in words)” value is listed as “some inhibition of the LPS response; also recorded: some dose-dependent suppression”. Also, the “% Inhibition (writhing)” value in assay [2] (100 mg/kg i.p.) amounted to 79%. Besides, the “# Writhes (X ± SEM)” value in assay [2] (100 mg/kg i.p., P.Q. 2 mg/kg i.p. 30 min post dosing, **P < 0.01) is 3 ± 1 # WRITHES. Besides, in assay [2] (i.p., compared with vehicle control), the “Analgesic activity (in words)” value was “exhibited analgesic activity”.
